Laboratory results published in patent publication US20100256048A1, “POLYPEPTIDE COMPOUND” (Astellas Pharma Inc., priority 2007, published 2010).

Tests used:
A. fumigatus 20030 = experiment: Mouse respiratory infection model; assay type: in vivo, Aspergillus fumigatus; settings: male ICR mice given cyclophosphamide, compound intravenously, lives and deaths observed over 10 days
Procedure: Effect to Mouse Respiratory Infection Model
4-week old male ICR mice were used so as to be eight mice in a group. 200 mg/kg of cyclophosphamide is intraperitoneally administered into mice at 4 days before infection and 1 day after infection. Conidium liquid (0.05 mL: approximately 2.2×10^6) of A. fumigatus 20030 suspended in physiological saline was inoculated from respiratory passages of mice to cause respiratory infection. The compound was administered intravenously for 2 hours to 4 days after the infection. The lives and deaths of the mice were observed over a 10 day period starting from the next day.

[1] = test system: A. fumigatus (Aspergillus fumigatus); experiment: MIC in human serum by microdilution, A. fumigatus; assay type: cell-based; settings: human serum buffered with 20 mM HEPES pH 7.3; 37° C., 24 hours, 5% CO2; geometric mean of three clinical cell lines; growth sufficiently inhibited versus growth control
Procedure: (§1) Measurement of Susceptibility to C. albicans (Candida albicans) and A. fumigatus (Aspergillus fumigatus) By the microdilution method where human serum buffered with 20 mM-HEPES buffer (pH 7.3) was used as a test medium, MIC (minimum inhibitory concentration) in human serum was determined. The inoculum suspension of 10^6 cells/mL was prepared by a hemocytometric procedure to obtain an inoculum size of approximately 5×10^3 to 2×10^4cells/mL. Microplates were incubated at 37° C. for 24 hours under 5% CO2 atmosphere. […] The values were shown as geometric mean of MIC with reference to three of clinical cell lines.

[2] = test system: C. albicans (Candida albicans); experiment: MIC in human serum by microdilution, C. albicans; assay type: cell-based; settings: human serum buffered with 20 mM HEPES pH 7.3; 37° C., 24 hours, 5% CO2; geometric mean of three clinical cell lines; growth completely inhibited
Procedure: as §1

SMILES | Infection experiments ED50 A. fumigatus (A. fumigatus 20030) [mg/kg] | MIC (mean of three cell lines) A. fumigatus [1] [µg/mL] | MIC (mean of three cell lines) C. albicans [2] [µg/mL]
COc1cc(C[C@@H](O)[C@@H]2NC(=O)[C@@H]3C[C@@H](O)CN3C(=O)[C@H]([C@@H](C)O)NC(=O)[C@@H](NC[C@H]3CC[C@H](c4nnc(-c5ccc(N6CCC(OC)(C7CCCCC7)CC6)cc5)s4)CC3)C[C@@H](O)CNC(=O)[C@@H]3[C@@H](O)[C@@H](C)CN3C(=O)[C@H]([C@H](O)CCN)NC2=O)ccc1O [Ex 1] | <0.3 | – | –
COc1cc(C[C@@H](O)[C@@H]2NC(=O)[C@@H]3C[C@@H](O)CN3C(=O)[C@H]([C@@H](C)O)NC(=O)[C@@H](NC[C@H]3CC[C@H](c4nnc(-c5ccc(N6CCC(OC)(C7CCCCC7)CC6)cc5)s4)CC3)C[C@@H](O)CNC(=O)[C@@H]3[C@@H](O)[C@@H](C)CN3C(=O)[C@H]([C@H](O)CCNC(CO)CO)NC2=O)ccc1O [Ex 6] | 0.44 | – | –
C[C@@H](O)[C@@H]1NC(=O)[C@@H](NCC2CCN(c3nnc(-c4ccc(-c5cnc(N6CCC(OC7CCCCC7)CC6)nc5)cc4)s3)CC2)C[C@@H](O)CNC(=O)[C@@H]2[C@@H](O)[C@@H](C)CN2C(=O)[C@H]([C@H](O)CC(=O)NCCN)NC(=O)[C@H]([C@H](O)Cc2ccc(O)c(OS(=O)(=O)O)c2)NC(=O)[C@@H]2C[C@@H](O)CN2C1=O [Ex 30] | – | 0.32 | 0.4
C[C@@H](O)[C@@H]1NC(=O)[C@@H](NC[C@H]2CC[C@H](c3nnc(-c4ccc(N5CCC(OC6CCCCC6)CC5)cc4)s3)CC2)C[C@@H](O)CNC(=O)[C@@H]2[C@@H](O)[C@@H](C)CN2C(=O)[C@H]([C@H](O)CCNC(CO)CO)NC(=O)[C@H]([C@H](O)Cc2ccc(O)c(OS(=O)(=O)O)c2)NC(=O)[C@@H]2C[C@@H](O)CN2C1=O [Ex 33] | 0.39 | – | –
